Measured values from US12727608B2, “Stable liquid animal feed ingredient” (PURAC BIOCHEM B.V., priority 2020, dated 2026).

Experiments:
Assay type in all cases: cell-based
Details in all cases: Experiment 2; 72 hours at 30° C.
[1] = tested on: Clostridium perfringens ATCC 13124
[2] = tested on: Streptococcus suis DSM 28762; assay: MIC determination (Bioscreen growth)
[3] = tested on: Streptococcus suis DSM 9682; assay: MIC determination (Bioscreen growth)

Measured: MIC value

CC(O)CO (stereo not drawn) [MPG, 1,2-propanediol]
>405 ppm: all assays above
